From patent US9884874B2, “Bromodomain-inhibiting compounds and pharmaceutical composition comprising same for preventing or treating a cancer” (KAINOS MEDICINE, INC., priority 2014, dated 2018)

Tests used:
human BRD4 bromodomain 1 = human BRD4 bromodomain 1 (Homo sapiens (Human), UniProt O60885); assay: Bromodomain binding assay (BRD4 Alpha-screen); conditions: acetylated histone H4 peptide
Experimental: Bromodomain binding assays were carried out in Reaction Biology (PA, USA) to test the degrees of the inventive compounds in inhibiting the human BRD4 bromodomain 1 by Alpha-screen assay method.
Recombinant human BRD4 bromodomain 1 expressed in E. coli with N-terminal His-tag was used as the enzyme target.
A synthetic peptide ([…]-GSGSK-biotin) containing 1 to 21th amino acids of histone H4 acetylated at lysine 5, 8, 12 and 16 and conjugated to biotin was purchased from Millipore.
BRD4-1 (44 to 170th amino acids; Genbank Accession # NM_058243) was expressed in E. coli with N-terminal His-tag (see, Ni-NTA spin Kit Handbook (Qiagen), second edition, January, 2008). Nickel-Chelate ALPHA acceptor beads (Perkin Elmer) were used to specifically bind BRD4-1, and ALPHA streptavidin donor beads (Perkin Elmer) were used because they specifically recognized the biotinylated H4 peptide.
BRD binding assays were performed in a mixture comprising 50 mM Hepes (pH7.5), 100 mM NaCl, 0.05% CHAPS, 0.1% BSA, and 1% DMSO. After an assay reaction time of 60 min at 25° C., binding was measured with streptavidin donor beads and nickel-chelate acceptor beads. ALPHA signal was detected on Enspire (Ex/Em=680/520-620 nm). IC50 values were calculated from the fit of the dose-response curves. All IC50 values represent geometric mean values of a minimum of four determinations. These assays generally produced results within 3-fold of the reported mean.

[1] = Human liver microsomal stability/clearance; assay type: in vitro ADME; conditions: human liver microsomes; first value of Human/Mouse cell; read-out: Liver microsomal clearance (Human)
Experimental: Human and mouse liver microsomal clearance assays were carried out in CROWN Biosciences (Taicang, China). The human liver microsomes (Cat No. X008067, Lot No. KQB) and mouse liver microsomes (Cat No. M1000, Lot No. 1210302) were purchased from Celsis and Xenotech, respectively.
5 μL of test compound stock solution was diluted with 495 μL of 1:1 Methanol/Water (final concentration: 100 μM, 50% MeOH) and combined with 534 μL of the respective liver microsome solution (final concentration: 1.111 μM, 0.555% MeOH). The final concentration of the liver microsome solution was 0.7 mg protein/mL.
Incubations of the liver microsome solutions were performed in a 96 well plate at 37° C. 90 μL of the liver microsome solutions were added to Blank, and 90 μL of working solution of the test compound was added to all plates except the Blank.
All plates thus obtained were warmed in water bath at 37° C. for 10 min, and 10 μL of NADPH co-factor solution comprising 42 mg of β-nicotinamide adenine dinucleotide phosphate (Sigma Cat. No. N0505 Lot 020M7009V), 84 mg of isocitric acid (Sigma Cat. No. 11252 Lot 119K1099) and 0.478 mL of isocitric dehydrogenase (Sigma Cat. No. 12002 Lot 086K7055, 15 units/mg protein, warmed in water bath at 37° C. for 5 min was added to the plates. The resulting plates were incubated at 37° C. in the following order: T60 (The test compounds were incubated with the liver microsomal solution and NADPH for 60 min at 37° C.), T30 (such as for 30 min.), and T10 (such as for 10 min.). 300 μL of a cold (4° C.) stop solution (acetonitrile (ACN) including 500 nM of tolbutamide as internal standard) and 10 μL of NADPH co-factor solution to starting plate (T0: 100% of the parent compound without any reaction) were added to the plates. The reaction was stopped by adding 300 μL of the cold (4° C.) stop solution to the other plates in the following order: T10 first, then T30 and T60.
The samples were centrifuged at 4,000 rpm for 20 min and transferred to Bioanalytical Services for liquid chromatography-mass spectrometry (LC-MS)/MS (Waters UPLC/API 4000, 10 μL injection) analysis.

[2] = test system: A375 (malignant melanoma); assay: Anti-proliferative activity, A375; assay type: cell-based; conditions: Homo sapiens, A-375, read-out: Cell proliferation, IC50
SK-LU-1 (adenocarcinoma) = assay: Anti-proliferative activity, SK-LU-1; assay type: cell-based; conditions: Homo sapiens, SKLU-1 (Adenocarcinoma), read-out: Cell proliferation, IC50
Daudi (B lymphoma) = assay: Anti-proliferative activity, Daudi; assay type: cell-based; conditions: Homo sapiens, read-out: Cell proliferation, IC50
[3] = Pharmacokinetics in beagle dogs; assay type: in vivo; conditions: plasma, dog, 3 mg/kg
Experimental: For serum compound analysis, blood samples were collected by cardiac puncture over 24 hr time course. 20 μL of spiked plasma was added into a 96-well plate, adding ten volumes of internal standard (IS) in acetonitrile (ACN) to the obtained precipitated protein mixed thoroughly, centrifuged at 4,000 rpm for 10 min. 150 μL of supernatant thus obtained was transferred to another pre-labeled 96-well plate, mixed with 150 μL of water. 5 μL or 10 μL of the mixture was injected into the LC-MS system under the following conditions:
Column: API-4000+Waters UPLC (TCLM08);
Lower limit of quantification (LLOQ) was at 1 ng/mL. Pharmacokinetic parameters of half-life (T1/2), clearance (CL), maximum plasma concentration (Cmax), mean residence time (MRT) and bioavailability (F %), plasma exposure (AUC) of the compound were calculated using Phoenix WinNonlin 6.3 (non-compartmental model).
Further, pharmacokinetics of Compound 1 in dog was evaluated in beagle dogs following IV administration at 3 mg/kg and PO administration at 3 mg/kg dose level, respectively.

**Q.** For `COc1ccc2c(c1)C(c1ccc(Cl)cc1)=N[C@@H](COS(C)(=O)=O)c1nnc(C)n1-2` [Compound 1, (R)-(6-(4-chlorophenyl)-8-methoxy-1-methyl-4H-benzo[f]-[1,2,4]triazolo[4,3-a][1,4]diazepin-4-yl)methyl methanesulfonate], which IC50 (human BRD4 bromodomain 1) is on record?
**A.** 0.19 µM

**Q.** And the microsomal CLint at 1 µM [1]?
**A.** 2.3 µL/min/mg

**Q.** And the IC50 [2]?
**A.** 5.57 µM

**Q.** And the IC50 (SK-LU-1 (adenocarcinoma))?
**A.** 6.96 µM

**Q.** What about the IC50 (Daudi (B lymphoma)) of the same molecule?
**A.** 5.09 µM

**Q.** What about the AUC ([3]; IV) of the same molecule?
**A.** 19.7 µM·h

**Q.** What about the MRT ([3]; IV) of the same molecule?
**A.** 4.9 h

**Q.** And the clearance ([3]; IV)?
**A.** 5.6 mL/min/kg

**Q.** What about the AUC ([3]; PO) of the same molecule?
**A.** 17.3 µM·h

**Q.** What about the bioavailability ([3]; PO) of the same molecule?
**A.** 92.3%
